Assays:
Conditions in all cases: 72 h
Caco-2 [1] = assay: cell viability relative to DMSO; higher = less toxic
Calu-3 [2] = assay: as above
HepG2 [3] = assay: as above
U2OS [4] = assay: as above
Vero E6 [5] = assay: as above
Caco-2 [6] = assay: relative viability EC50 (midpoint between 100% and the lowest measured viability); higher = less toxic
Calu-3 [7] = assay: as above
HepG2 [8] = assay: as above
U2OS [9] = assay: as above
Vero E6 [10] = assay: as above
Caco-2 [11] = assay: drug sensitivity score (DSS) for viability; higher = more toxic; extreme values may be limits of the assay
Calu-3 [12] = assay: as above
HepG2 [13] = assay: as above
U2OS [14] = assay: as above
Vero E6 [15] = assay: as above

Row | SMILES | cell viability (Caco-2 [1]; 1 nM) [%] | cell viability (Caco-2 [1]; 10 nM) [%] | cell viability (Caco-2 [1]; 100 nM) [%] | cell viability (Caco-2 [1]; 1000 nM) [%] | cell viability (Caco-2 [1]; 10000 nM) [%] | cell viability (Calu-3 [2]; 1 nM) [%] | cell viability (Calu-3 [2]; 10 nM) [%] | cell viability (Calu-3 [2]; 100 nM) [%] | cell viability (Calu-3 [2]; 1000 nM) [%] | cell viability (Calu-3 [2]; 10000 nM) [%] | cell viability (HepG2 [3]; 1 nM) [%] | cell viability (HepG2 [3]; 10 nM) [%] | cell viability (HepG2 [3]; 100 nM) [%] | cell viability (HepG2 [3]; 1000 nM) [%] | cell viability (HepG2 [3]; 10000 nM) [%] | cell viability (U2OS [4]; 1 nM) [%] | cell viability (U2OS [4]; 10 nM) [%] | cell viability (U2OS [4]; 100 nM) [%] | cell viability (U2OS [4]; 1000 nM) [%] | cell viability (U2OS [4]; 10000 nM) [%] | cell viability (Vero E6 [5]; 1 nM) [%] | cell viability (Vero E6 [5]; 10 nM) [%] | cell viability (Vero E6 [5]; 100 nM) [%] | cell viability (Vero E6 [5]; 1000 nM) [%] | cell viability (Vero E6 [5]; 10000 nM) [%] | relative viability EC50 (Caco-2 [6]) [µM] | relative viability EC50 (Calu-3 [7]) [µM] | relative viability EC50 (HepG2 [8]) [µM] | relative viability EC50 (U2OS [9]) [µM] | relative viability EC50 (Vero E6 [10]) [µM] | drug sensitivity score (Caco-2 [11]) | drug sensitivity score (Calu-3 [12]) | drug sensitivity score (HepG2 [13]) | drug sensitivity score (U2OS [14]) | drug sensitivity score (Vero E6 [15])
1 | COc1cc2c(cc1O)C(CCc1ccc(Cl)cc1)N(C)CC2 (stereo not given) [Ro-04-5595] | 102 | 97.2 | 94.4 | 100 | 102 | 93 | 94.6 | 102 | 96.6 | 92.1 | 103 | 101 | 102 | 99 | 80.1 | 100 | 96.2 | 95.8 | 95.1 | 97.9 | 106 | 108 | 101 | 102 | 90.1 | > 10 | > 10 | > 10 | > 10 | > 10 | 0 | 0 | 0.7 | 0 | 0
2 | Cc1ncc(CN2CC=C(c3ccccc3)CC2)c(N)n1 [Ro-10-5824] | 102 | 105 | 96.8 | 97.1 | 96.8 | 103 | 95.6 | 103 | 99.5 | 99.5 | 91.8 | 104 | 108 | 115 | 112 | 101 | 95.3 | 102 | 95.8 | 96.9 | 92.7 | 108 | 88.5 | 99.2 | 108 | > 10 | > 10 | > 10 | > 10 | > 10 | 0 | 0 | 0 | 0 | 0
3 | COc1ccc(-n2nc(C(F)(F)F)cc2-c2ccc(Cl)cc2)cc1 [SC-560] | 101 | 99.1 | 95.7 | 92.2 | 86.6 | 104 | 104 | 109 | 95.3 | 108 | 106 | 104 | 104 | 91 | 87 | 102 | 99.9 | 104 | 98.8 | 100 | 98.2 | 105 | 92.6 | 100 | 44.3 | > 10 | > 10 | > 10 | > 10 | 3.18 | 0.2 | 0 | 0.6 | 0 | 3
4 | CC1(C)O[C@@H]2C[C@H]3[C@@H]4CCC5=CC(=O)C=C[C@]5(C)[C@@]4(F)[C@@H](O)C[C@]3(C)[C@]2(C(=O)CO)O1 [TRIAMCINOLONE ACETONIDE] | 94.2 | 96.2 | 96.8 | 89 | 93.1 | 98.4 | 95.4 | 87.6 | 103 | 106 | 103 | 91.3 | 94.6 | 101 | 93 | 99.4 | 95.7 | 94.6 | 90.7 | 95.2 | 102 | 99 | 95.3 | 97.4 | 100 | > 10 | > 10 | > 10 | > 10 | > 10 | 0 | 0 | 0 | 0 | 0
5 | C/C(=C\c1ccc(C(=O)O)cc1)c1ccc2c(c1)C(C)(C)CCC2(C)C [TTNPB] | 98.1 | 95.1 | 95 | 95.3 | 91.9 | 95 | 95.6 | 84.3 | 81.7 | 77.2 | 94.2 | 106 | 108 | 100 | 108 | 99.3 | 99.2 | 94.3 | 93.2 | 92.5 | 94.7 | 102 | 98.3 | 97.9 | 102 | > 10 | > 10 | > 10 | > 10 | > 10 | 0 | 3.9 | 0 | 0 | 0
6 | O=C(COc1cccc2c(=O)[nH]ccc12)c1ccccc1 [UPF-1069] | 95.6 | 92.5 | 94.8 | 87 | 84.5 | 98.2 | 101 | 92.9 | 96.8 | 90.2 | 97 | 95.6 | 98.5 | 89 | 88 | 102 | 101 | 95.1 | 103 | 93.9 | 94.2 | 108 | 107 | 93.8 | 94.6 | > 10 | > 10 | > 10 | > 10 | > 10 | 0.8 | 0 | 0.1 | 0 | 0
7 | O=C(Nc1cc(-c2ccccc2)nn1-c1ccccc1)c1ccc([N+](=O)[O-])cc1 [VU29] | 106 | 96.2 | 102 | 95 | 96.6 | 102 | 102 | 107 | 98.5 | 111 | 105 | 112 | 108 | 100 | 90.2 | 110 | 101 | 107 | 99 | 99 | 100 | 96.4 | 101 | 94.2 | 88.6 | > 10 | > 10 | > 10 | > 10 | > 10 | 0 | 0 | 0 | 0 | 0.2
8 | Cc1cccc(COc2cccc(/C=C3\C(=O)NN(c4ccccc4)C3=O)c2)c1 [Y16] | 100 | 97.9 | 101 | 93.6 | 100 | 104 | 104 | 97.3 | 102 | 102 | 92.8 | 93.5 | 98.3 | 103 | 87.6 | 99.5 | 98.4 | 97.9 | 93.6 | 97.8 | 98.5 | 96.7 | 98.8 | 96.8 | 87.8 | > 10 | > 10 | > 10 | > 10 | > 10 | 0 | 0 | 0 | 0 | 0.2
9 | O=C(O)Cc1ccc(OCCNC[C@H](O)c2ccccc2)cc1 [ZD-2079] | 92.1 | 102 | 104 | 99.3 | 95 | 98.5 | 92.7 | 105 | 98 | 96.2 | 109 | 110 | 107 | 101 | 94.3 | 102 | 94.8 | 107 | 98.5 | 104 | 104 | 100 | 98.8 | 102 | 100 | > 10 | > 10 | > 10 | > 10 | > 10 | 0 | 0 | 0 | 0 | 0
10 | CC(=O)Nc1nnc(S(N)(=O)=O)s1 [acetazolamide] | 97.5 | 97.7 | 95.2 | 96.6 | 92.4 | 103 | 104 | 97.5 | 99.2 | 94.3 | 105 | 103 | 105 | 105 | 98 | 103 | 101 | 95.7 | 104 | 97.2 | 102 | 101 | 97.9 | 89.9 | 99.9 | > 10 | > 10 | > 10 | > 10 | > 10 | 0 | 0 | 0 | 0 | 0
11 | Nc1[nH]cnc2ncnc1-2 [adenine] | 91.8 | 95.9 | 104 | 88.5 | 114 | 91.3 | 93.3 | 112 | 108 | 90.7 | 77.5 | 98.7 | 92.8 | 92.5 | 93.2 | 93.8 | 103 | 98.4 | 99.5 | 110 | 104 | 103 | 101 | 91.7 | 98.2 | > 10 | > 10 | > 10 | > 10 | > 10 | 0 | 0 | 0 | 0 | 0
12 | COc1ccc2cccc(CCNC(C)=O)c2c1 [agomelatine] | 102 | 104 | 104 | 96.8 | 98 | 105 | 106 | 103 | 88.4 | 106 | 97.7 | 104 | 97.8 | 101 | 103 | 105 | 99 | 105 | 98.8 | 99.8 | 98 | 103 | 92.5 | 106 | 96.5 | > 10 | > 10 | > 10 | > 10 | > 10 | 0 | 0 | 0 | 0 | 0
13 | CCCCC[C@H](O)/C=C/[C@H]1[C@H](O)CC(=O)[C@@H]1CCCCCCC(=O)O [alprostadil] | 96.8 | 99 | 96.7 | 98.6 | 97.8 | 99 | 105 | 88.2 | 98.7 | 98.1 | 91.4 | 101 | 98.6 | 99.4 | 90.5 | 104 | 102 | 100 | 96.7 | 98.7 | 101 | 101 | 98.7 | 101 | 96.1 | > 10 | > 10 | > 10 | > 10 | > 10 | 0 | 0 | 0 | 0 | 0
14 | CCNC(=O)N1CCN(CCCC(c2ccc(F)cc2)c2ccc(F)cc2)CC1 [amperozide] | 96.5 | 96.6 | 85.6 | 94.1 | 81.4 | 97.6 | 103 | 95.7 | 106 | 94.4 | 98.5 | 102 | 91.9 | 103 | 93.7 | 97.5 | 103 | 94.4 | 100 | 95.3 | 98.7 | 98.6 | 100 | 99.2 | 94.1 | > 10 | > 10 | > 10 | > 10 | > 10 | 1 | 0 | 0 | 0 | 0

Reference: the supplement of paper PMC13380429
